Results taken from US20220073554A1, “LINCOSAMIDE ANTIBIOTICS AND USES THEREOF” (President and Fellows of Harvard College, priority 2017, published 2022).
≈ marks a conversion by molar mass, not a printed value. Where two headings read alike, the source gives them in different places.

Columns and labels:
Type in all cases: cell-based
[1] = test system: K. pneumoniae ATCC 10031; assay: MIC against K. pneumoniae ATCC 10031; details: Klebsiella pneumoniae, ATCC10031
[2] = test system: S. pyogenes ATCC 19615; assay: MIC against S. pyogenes ATCC 19615; details: Streptococcus pyogenes, ATCC19615; S. pyogenes ATCC 19615; read-out: MIC
[3] = test system: H. influenzae ATCC 49247; assay: MIC against H. influenzae ATCC 49247; details: Haemophilus influenzae, ATCC49247
[4] = test system: S. pneumoniae ATCC 49619; assay: MIC against S. pneumoniae ATCC 49619; details: Streptococcus pneumoniae, ATCC49619
[5] = test system: E. coli ATCC 25922; assay: MIC against E. coli ATCC 25922; details: Escherichia coli, ATCC25922
[6] = test system: S. aureus ATCC 29213; assay: MIC against S. aureus ATCC 29213
[7] = test system: E. coli MP-9 ΔTolC; assay: MIC against E. coli MP-9 ΔTolC; details: Escherichia coli
[8] = test system: E. faecalis ATCC 29212; assay: MIC against E. faecalis ATCC 29212; details: Enterococcus faecalis
[9] = test system: S. aureus MP-549 msr(a) USA 300; assay: MIC against S. aureus MP-549 msr(a) USA 300; details: Staphylococcus aureus, USA300, S. aureus MP-549 msr(a) USA 300
[10] = test system: E. coli ATCC 15922; assay: MIC against E. coli ATCC 15922; details: Escherichia coli, ATCC15922; E. coli ATCC 15922; read-out: MIC
[11] = test system: E. coli MP-74 LptD mutant; assay: MIC against E. coli MP-74 LptD mutant; details: Escherichia coli
[12] = S. pneumoniae ATCC 49619, read-out: MIC
[13] = Staphylococcus aureus, ATCC29213, S. aureus ATCC 29213, read-out: MIC
[14] = E. coli ATCC 25922, read-out: MIC
[15] = Staphylococcus aureus, ATCC29213
[16] = K. pneumoniae ATCC 10031, read-out: MIC

SMILES	MIC [1] [µg/mL]	MIC [2] [µg/mL]	MIC [3] [µg/mL]	MIC [4, 12] [µg/mL]	MIC [5] [µg/mL]	MIC [6, 13] [µg/mL]	MIC [7] [µg/mL]	MIC ([8]; ATCC29212, read-out: MIC) [µg/mL]	MIC [5, 14] [µg/mL]	MIC [6, 15] [µg/mL]	MIC [9] [µg/mL]	MIC [10] [µg/mL]	MIC [4] [µg/mL]	MIC ([8]; ATCC29212) [µg/mL]	MIC [11] [µg/mL]	MIC [1, 16] [µg/mL]	MIC ([6]; S. aureus ATCC 29213) [µg/mL]
CSC1O[C@H]([C@H](NC(=O)[C@H]2NC[C@@H]3CC(c4cccc5cnccc45)=CCO[C@H]32)[C@H](C)Cl)C(O)[C@@H](O)[C@H]1O (stereo partly drawn) [FSA-510006]	> 64	0.5 (≈ 0.886 µM)	> 64	1 (≈ 1.77 µM)	> 64	8 (≈ 14.2 µM)	> 64										
CSC1O[C@H]([C@H](NC(=O)[C@H]2NC[C@@H]3C=C(c4ccc(C)cc4)CCO[C@@H]23)[C@H](C)Cl)C(O)[C@@H](O)[C@H]1O (stereo partly drawn) [FSA-512075]						0.5 (≈ 0.949 µM)		2 (≈ 3.79 µM)	> 256								
CSC1O[C@H]([C@H](NC(=O)[C@H]2NC[C@@H]3C[C@@H](c4ccc(C)cc4)CCO[C@H]32)[C@H](C)Cl)C(O)[C@@H](O)[C@H]1O (stereo partly drawn) [FSA-512079b]		≤ 0.12					8 (≈ 15.1 µM)	1 (≈ 1.89 µM)	> 128	0.5 (≈ 0.945 µM)	0.5 (≈ 0.945 µM)						
CSC1O[C@H]([C@H](NC(=O)[C@H]2NC[C@@H]3CC(c4ccc(C)cc4)CCO[C@H]32)[C@H](C)Cl)C(O)[C@@H](O)[C@H]1O (stereo partly drawn) [FSA-511044]		≤ 0.06				0.23 (≈ 0.435 µM)		2 (≈ 3.78 µM)			0.5 (≈ 0.945 µM)	> 64	0.5 (≈ 0.945 µM)				
CSC1O[C@H]([C@H](NC(=O)[C@H]2NC[C@@H]3CC(NCc4ccccc4F)CCO[C@H]32)[C@H](C)Cl)C(O)[C@@H](O)[C@H]1O (stereo partly drawn) [FSA-510072]	> 64	8 (≈ 14.2 µM)	> 64	32 (≈ 56.9 µM)	> 64		> 64							> 64	> 64		
CSC1O[C@H]([C@H](NC(=O)[C@H]2NC[C@@H]3CC(NCc4ccc(F)cc4)CCO[C@H]32)[C@H](C)Cl)C(O)[C@@H](O)[C@H]1O (stereo partly drawn) [FSA-510074]	> 64	8 (≈ 14.2 µM)	> 64		> 64									> 64	> 64		
CSC1O[C@H]([C@H](NC(=O)[C@H]2NC[C@@H]3C=C(C#Cc4cccc(F)c4)CCO[C@@H]23)[C@H](C)Cl)C(O)[C@@H](O)[C@H]1O (stereo partly drawn) [FSA-510003]					> 64	0.5 (≈ 0.901 µM)	> 64	1 (≈ 1.8 µM)									
COc1ccc(C2=CCO[C@@H]3[C@H](CN[C@@H]3C(=O)N[C@H]([C@H](C)Cl)[C@H]3OC(SC)[C@H](O)[C@H](O)C3O)C2)cc1 (stereo partly drawn) [FSA-511020]		≤ 0.06		≤ 0.06		0.5 (≈ 0.921 µM)		4 (≈ 7.37 µM)	> 64		1 (≈ 1.84 µM)					> 64	
CSC1O[C@H]([C@H](NC(=O)[C@H]2NC[C@@H]3CC(c4ccc(C)cc4)=CCO[C@H]32)[C@H](C)Cl)C(O)[C@@H](O)[C@H]1O (stereo partly drawn) [FSA-511019]		0.195 (≈ 0.37 µM)						4 (≈ 7.59 µM)	> 64	0.5 (≈ 0.949 µM)	0.5 (≈ 0.949 µM)					> 64	
CSC1O[C@H]([C@H](NC(=O)[C@H]2NC[C@@H]3C[C@@H](c4ccc(C#N)cc4)CCO[C@H]32)[C@H](C)Cl)C(O)[C@@H](O)[C@H]1O (stereo partly drawn) [FSA-511046]		≤ 0.06		≤ 0.06			8 (≈ 14.8 µM)	1 (≈ 1.85 µM)			0.5 (≈ 0.926 µM)	> 64					1 (≈ 1.85 µM)
CSC1O[C@H]([C@H](NC(=O)[C@H]2NC[C@@H]3CC(NCc4cccc(F)c4)CCO[C@H]32)[C@H](C)Cl)C(O)[C@@H](O)[C@H]1O (stereo partly drawn) [FSA-510073]	> 64	2 (≈ 3.56 µM)	> 64	8 (≈ 14.2 µM)	> 64		> 64							> 64	> 64		
CSC1O[C@H]([C@H](NC(=O)[C@@H]2[C@@H]3OCC=CC[C@H]3CN2C2CC2)[C@H](C)Sc2ccc(-c3cccnc3)cc2)C(O)[C@@H](O)[C@H]1O (stereo partly drawn) [FSA-214009a]		4 (≈ 6.37 µM)		4 (≈ 6.37 µM)				> 64				> 64					
